Read-outs that look alike come from different tables or passages of the source.
What was measured:
SZ95 sebocytes = test: Sentinel Lipid Assay (SLA), desaturation index in SZ95 sebocytes; format: cell-based; settings: Homo sapiens, 72 h; for EC50: desaturation index, lowest dose used 4.6 nM, read-out: SLA EC50
Protocol: Sentinel Lipid Assay (SLA)
The sentinel lipid assay was used quantify the change in the global desaturation index in SZ95 sebocytes upon administration of certain LXR agonist compounds provided herein. The assay measures a smaller subset of lipid analytes in meibum (termed “sentinel lipids”) which would model the global changes the population of both saturated and desaturated lipids in the cells. In order to define this smaller subset of lipids, a complete lipid profile was recorded on dose response curves (eight levels from 4 nM to 10 uM) of Compounds 1-72. An elastic net regression model was applied separately to both the saturated and desaturated lipids to determine the minimum combination of coefficients and analytes, which could be used to adequately model the total population of lipids. The elastic net model was able to reduce the behavior of 425 lipids to 11 lipids and the correlation between the desaturation indices observed using the complete set of lipids with from the 11 sentinel lipids was 0.96.
A medium throughput assay was created using this reduced set of sentinel lipids. A single batch is defined as triplicate examples of three unique plates (i.e., a single batch of cells is used to create nine plates for LC-MSMS analysis). Lipids were extracted from the cells using a 1:1 mixture of methylene chloride/methanol containing 10 nM of deuterated standards of triglycerides, which are used as internal standards for quantitating the lipid abundance. The lipids were separated prior to mass spectrometric analysis using a five minute HPLC gradient. The abundance of the sentinel lipids and the internal standards are measured using multiple reaction monitor mode (MRM) on a triple quadrupole mass spectrometer. The data was transformed from total ion current to nmoles/10^6 cells, which are multiplied by the coefficients from the elastic net model to determine the effective desaturated and saturated content, and therein the desaturation index of the dosed cells. In order to compare compounds from multiple batches with one another, the measure raw desaturation index was normalized by dividing it by the desaturation index of the DMSO dosed cells, and all data was assessed as the fraction by which the compound increases the desaturation index above 1.
SZ95 (immortalized human sebaceous gland cells) cells were seeded in Greiner bio-one 96-well polypropylene plates that were pre-treated with 50 μg/mL Human Plasma Fibronectin (Thermo Fisher Scientific) at a density of 10^4 cells/135 μl. Cells were incubated in a humidified incubator with 5% CO2 at 37° C. overnight. Test compounds were diluted at a ratio of 1:3 and added to cells at final concentrations starting from 10 μM. 2-(3-(3-((2-chloro-3-(trifluoromethyl)benzyl)(2,2-diphenylethyl)amino)propoxy)phenyl)acetic acid was used as a positive control reference compound in each plate. Cells in the assay plate were incubated in a humidified incubator with 5% CO2 at 37° C. for 72 h.
Culture medium was removed from the cells and cells in culture plates were washed with ice cold phosphate buffered saline three times. Plates were heat sealed and stored in a −80° C. freezer prior to Sentinel lipid assay. The Amax value refers to the percent EC50 of the tested compound compared to a reference compound, 2-(3-(3-((2-chloro-3-(trifluoromethyl)benzyl)(2,2-diphenylethyl)amino)propoxy)phenyl)acetic acid.

SCD1 = test: Measurement of SCD1 expression in SZ95-SCD1-HiBit cells (HiBiT assay); format: cell-based; settings: Homo sapiens, 48 h; for EC50: SCD1 protein production, luminescence, initial dilution 1:3 in DMSO, read-out: HiBit EC50
Description: Measurement of SCD1 Expression in SZ95-SCD1-HiBit Cells
SCD1 expression levels in SZ95 cells were quantitated using the HiBiT system (Promega) in which a small peptide sequence (SmBiT) with a larger protein (LgBiT) reconstitutes luciferase activity and can generate a luminescent signal used for quantitation. SZ95-SCD1-HiBit cells were generated by editing the SCD1 gene of SZ95 cells resulting in the addition of an 8 amino acid linker sequence (gssggssg, SEQ ID NO:1) followed by an 11-amino acid SmBiT sequence (vsgwrlfkkis, SEQ ID NO:2) at the carboxy-terminus of the SCD1 protein. The gRNA targeting sequence used was […] (SEQ ID NO: 3) and the SCD1 insertion oligonucleotide encoding the SmBiT sequence was:
SZ95-SCD1-HiBit cells were seeded in 384-well cell culture white plates at a density of 3000 cells/30 μl. Water was added to edge wells to avoid evaporation. Cells were incubated in a humidified incubator with 5% CO2 at 37° C. overnight. Tested compounds were diluted at a ratio of 1:3 in DMSO using an Agilent BRAVO Automated Liquid Handling Platform and, after further serial dilutions, added to cells at final concentrations starting from 18 μM. 2-(3-(3-((2-chloro-3-(trifluoromethyl)benzyl)(2,2-diphenylethyl)amino)propoxy)phenyl)acetic acid was used as a reference compound in each plate. Cells in the assay plate were incubated in a humidified incubator with 5% CO2 at 37° C. for 48 h.
The assay plates were removed from the incubator and allowed to equilibrate to room temperature. Nano-Glo® HiBiT Detection Reagent (Promega; a mixture of Nano-Glo HiBiT Detection Buffer, Nano-Glo HiBiT Detection Substrate, and LgBiT protein, according to the manufacturer's instructions) was added into assay plates, at a volume equal to cell culture medium in each well. Plates were placed on an orbital shaker at a speed of 300-600 rpm for 10 min at room temperature, and read on an EnVision Plate Reader using luminescence detection with a 1 second read time.
The assay measures the increase in SCD1 protein production in vitro. Amax refers to the percent EC50 of the tested compound compared to a reference compound, 2-(3-(3-((2-chloro-3-(trifluoromethyl)benzyl)(2,2-diphenylethyl)amino)propoxy)phenyl)acetic acid.

[1] = normalized Amax based on the reference compound Amax of 100%, read-out: SLA Normalized Amax
[2] = SZ95 cells, compared to reference compound, read-out: SLA Amax
[3] = normalized Amax based on the reference compound Amax of 100%, read-out: HiBit Normalized Amax
[4] = SZ95-SCD1-HiBit cells, compared to reference compound, read-out: HiBit Amax

SMILES | EC50 (SZ95 sebocytes; SZ95 cells) | EC50 (SCD1; SZ95-SCD1-HiBit cells) | Emax (SZ95 sebocytes; [1]) | Emax (SZ95 sebocytes; [2]) | Emax (SCD1; [3]) | Emax (SCD1; [4])
CC(C)CS(=O)(=O)c1ccccc1Oc1ccc(-c2noc(CN3C(=O)N(CCN4CCOCC4)C4(CCN(Cc5cc(O)cc(O)c5)CC4)C3=O)n2)cc1C(F)(F)F [Compound 21, 8-(3,5-dihydroxybenzyl)-3-((3-(4-(2-(isobutylsulfonyl)phenoxy)-3-(trifluoromethyl)phenyl)-1,2,4-oxadiazol-5-yl)methyl)-1-(2-morpholinoethyl)-1,3,8-triazaspiro[4.5]decane-2,4-dione] | ≤ 4.6 nM | 0.241 nM | 102% | 97.5% | 83.7% | 79.6%
CC(C)CS(=O)(=O)c1ccccc1Oc1ccc(-c2noc(CN3C(=O)N(CCN4CCOCC4)C4(CCN(C5CCN(C)CC5)CC4)C3=O)n2)cc1C(F)(F)F [Compound 22, 3-((3-(4-(2-(isobutylsulfonyl)phenoxy)-3-(trifluoromethyl)phenyl)-1,2,4-oxadiazol-5-yl)methyl)-8-(1-methylpiperidin-4-yl)-1-(2-morpholinoethyl)-1,3,8-triazaspiro[4.5]decane-2,4-dione] | ≤ 4.6 nM | 1.83 nM | 160% | 154% | 135% | 129%
CC(C)CS(=O)(=O)c1ccccc1Oc1ccc(-c2noc(CN3C(=O)N(CCN4CCOCC4)C4(CCN(C5CCN(C)C5)CC4)C3=O)n2)cc1C(F)(F)F (stereo not drawn) [Compound 23, 3-((3-(4-(2-(isobutylsulfonyl)phenoxy)-3-(trifluoromethyl)phenyl)-1,2,4-oxadiazol-5-yl)methyl)-8-(1-methylpyrrolidin-3-yl)-1-(2-morpholinoethyl)-1,3,8-triazaspiro[4.5]decane-2,4-dione] | ≤ 4.6 nM | 3.48 nM | 176% | 169% | 85.1% | 80.9%
CCN1CCC2(CC1)C(=O)N(Cc1nc(-c3ccc(Oc4ccccc4S(=O)(=O)CC(C)C)c(C(F)(F)F)c3)no1)C(=O)N2CCN1CCOCC1 [Compound 24, 8-ethyl-3-((3-(4-(2-(isobutylsulfonyl)phenoxy)-3-(trifluoromethyl)phenyl)-1,2,4-oxadiazol-5-yl)methyl)-1-(2-morpholinoethyl)-1,3,8-triazaspiro[4.5]decane-2,4-dione] | ≤ 4.6 nM | 0.05 nM | 164% | 158% | 117% | 111%
CC(C)CS(=O)(=O)c1ccccc1Oc1ccc(-c2noc(CN3C(=O)N(CCN4CCOCC4)C4(CCN(Cc5cccnn5)CC4)C3=O)n2)cc1C(F)(F)F [Compound 25, 3-((3-(4-(2-(isobutylsulfonyl)phenoxy)-3-(trifluoromethyl)phenyl)-1,2,4-oxadiazol-5-yl)methyl)-1-(2-morpholinoethyl)-8-(pyridazin-3-ylmethyl)-1,3,8-triazaspiro[4.5]decane-2,4-dione] | ≤ 4.6 nM | 1.62 nM | 190% | 182% | 98.2% | 93.4%
CC(C)CS(=O)(=O)c1ccccc1Oc1ccc(-c2noc(CN3C(=O)N(CCN4CCOCC4)C4(CCN(CC5CCOCC5)CC4)C3=O)n2)cc1C(F)(F)F [Compound 26, 3-((3-(4-(2-(isobutylsulfonyl)phenoxy)-3-(trifluoromethyl)phenyl)-1,2,4-oxadiazol-5-yl)methyl)-1-(2-morpholinoethyl)-8-((tetrahydro-2H-pyran-4-yl)methyl)-1,3,8-triazaspiro[4.5]decane-2,4-dione] | ≤ 4.6 nM | 0.796 nM | 113% | 108% | 96.3% | 91.6%

Further lines, with some results ahead:

EC50 (SZ95 sebocytes; SZ95 cells) | EC50 (SCD1; SZ95-SCD1-HiBit cells) | SMILES | Emax (SZ95 sebocytes; [1]) | Emax (SZ95 sebocytes; [2]) | Emax (SCD1; [3]) | Emax (SCD1; [4])
≤ 4.6 nM | 0.041 nM | CS(=O)(=O)c1ccccc1Oc1ccc(-c2noc(CN3C(=O)N(CCC4CCOCC4)C4(CCN(C5CCC5)CC4)C3=O)n2)cc1C(F)(F)F [Compound 17, 8-cyclobutyl-3-((3-(4-(2-(methylsulfonyl)phenoxy)-3-(trifluoromethyl)phenyl)-1,2,4-oxadiazol-5-yl)methyl)-1-(2-(tetrahydro-2H-pyran-4-yl)ethyl)-1,3,8-triazaspiro[4.5]decane-2,4-dione] | 102% | 97.4% | 200% | 190%
≤ 4.6 nM | 0.133 nM | O=C1N(Cc2nc(-c3ccc(Oc4ccccc4S(=O)(=O)CC4CCCO4)c(C(F)(F)F)c3)no2)C(=O)C2(CCN(C3CCC3)CC2)N1CCN1CCOCC1 (stereo not drawn) [Compound 18, 8-cyclobutyl-1-(2-morpholinoethyl)-3-((3-(4-(2-(((tetrahydrofuran-2-yl)methyl)sulfonyl)phenoxy)-3-(trifluoromethyl)phenyl)-1,2,4-oxadiazol-5-yl)methyl)-1,3,8-triazaspiro[4.5]decane-2,4-dione] | 141% | 135% | 139% | 132%
≤ 4.6 nM | 0.042 nM | O=C1N(Cc2nc(-c3ccc(Oc4ccccc4S(=O)(=O)CC4CCCO4)c(C(F)(F)F)c3)no2)C(=O)C2(CCN(C3CCC3)CC2)N1CCC1CCOCC1 (stereo not drawn) [Compound 19, 8-cyclobutyl-1-(2-(tetrahydro-2H-pyran-4-yl)ethyl)-3-((3-(4-(2-(((tetrahydrofuran-2-yl)methyl)sulfonyl)phenoxy)-3-(trifluoromethyl)phenyl)-1,2,4-oxadiazol-5-yl)methyl)-1,3,8-triazaspiro[4.5]decane-2,4-dione] | 146% | 140% | 194% | 184%
≤ 4.6 nM | 0.078 nM | CC(C)CS(=O)(=O)c1ccccc1Oc1ccc(-c2noc(CN3C(=O)N(CCN4CCOCC4)C4(CCN(Cc5ccc(O)cc5)CC4)C3=O)n2)cc1C(F)(F)F [Compound 20, 8-(4-hydroxybenzyl)-3-((3-(4-(2-(isobutylsulfonyl)phenoxy)-3-(trifluoromethyl)phenyl)-1,2,4-oxadiazol-5-yl)methyl)-1-(2-morpholinoethyl)-1,3,8-triazaspiro[4.5]decane-2,4-dione] | 155% | 149% | 93.7% | 89.1%
